Patent EP0359529B1, “Method for the control of pneumocystis carinii” (Merck & Co., Inc., priority 1988, dated 1990)
Numbered stars: 1 amine (or outer) side, 2 acyl side, 3 side chain; on linkers, the order of the positions; unused ones are H or OH. Bridge positions count the residues as written; N and C are the ends. Square brackets hold non-standard residues; d marks the D form. Peptide text beside a SMILES is read from it. * marks the point of attachment. ξ: configuration not given here. ξOrn(4R-OH,5R-OH) = O=C(C(C[C@@H](O)[C@@H](O)N[*:3])N[*:1])[*:2]; ξhTyr(3S-OH,4S-OH) = NC(C(=O)O)[C@H](O)[C@@H](O)c1ccc(O)cc1; ξOrn(4,5-diOH) = O=C(C(CC(O)C(O)N[*:3])N[*:1])[*:2]; ξhTyr(βξ-OH,γξ-OH) = NC(C(=O)O)C(O)C(O)c1ccc(O)cc1; Benzoyl(4-octyloxy) = CCCCCCCCOc1ccc(C(=O)*)cc1; X3 = C[C@H]1CN([*:1])C(C(=O)[*:2])[C@H]1O; ξPro(3ξ-OH,4ξ-Me) = CC1CNC(C(=O)O)C1O; X2 = NC(=O)CC(O)C(N[*:1])C(=O)[*:2]; ξPro(4R-OH) = O=C(O)C1C[C@@H](O)CN1; X1 = CCC(C)CC(C)CCCCCCCCC(=O)*; Hyp = O=C(O)[CH]1C[CH](O)CN1; ξT = CC(O)C(N)C(=O)O

Assays:
P. carinii [1] = test: Similar immunosuppressed rat study, 7 day treatment, cysts per lung counted; type: in vivo; settings: immunosuppressed rats; 2 mg/kg injected twice daily for 7 days; vehicle 10% DMSO
Method: A similar rat study was conducted to determine the antipneumocystis activity of 1-[(4R,5R)-4,5-dihydroxy-N²-[4-(octyloxy)benzoyl]-L-ii ornithine]echinocandin B (Compound IBii). After 6 weeks of immunosuppression the rats were injected twice daily for 7 days with vehicle alone. Compound IBii (2 mg/kg) or Compound IA (2 mg/kg) during which time immunosuppression was continued. At the end of the treatment period the animals were sacrificed and the number of cysts per lung determined. Compound IA reduced the number of cysts by >99% while Compound IBii reduced the cyst counts by approximately 84% (compared to the vehicle control, 10% DMSO).

P. carinii [2] = test: Immunosuppressed rat study of P. carinii infection, two week treatment, lung cysts and parasite nuclei counted; type: in vivo, Sprague-Dawley rats; settings: dexamethasone-immunosuppressed rats; two weeks treatment; Compound IA 2 mg i.p. twice daily; TMP-SMZ in drinking water (208 mg TMP and 1.040 g SMZ/liter); controls 3.2 x 10⁸ - 1.5 x 10⁹
Method: In a representative study employing Compound IA in rats, nine male Sprague-Dawley rats weighing approximately 200 grams each, were immunosupressed by the addition of dexamethasone to the drinking water (2.0 mg/liter) for six weeks to induce the development of P. carinii infections. To enhance the infection the rats were also maintained on a low protein diet. At the beginning of the seventh week the rats were divided into three groups of three rats each. All three groups continued to receive dexamethasone in the drinking water and low protein diet throughout the remainder of the study. The rats in Group I were kept as untreated infected controls, those in Group II were injected intraperitoneally twice daily for two weeks with 0.5 ml of sterile dH₂O containing 2 mg of Compound IA, and those in Group III were treated with trimethoprim-sulfamethoxazole (TMP-SMZ) in the drinking water (208 mg TMP and 1.040 g of SMZ/liter) for two weeks, a known treatment for P. carinii infections. Two rats died early in the experiment. One was from group II (rat 72A) and the other from group III (rat 75A). It was not determined whether they died from Pneumocystis pneumonia. At the end of the two week treatment period (a total of eight weeks of immonosuppression) the animals were sacrificed and the lung tissue removed. […]

Compound | reduction of the number of cysts per lung compared to the vehicle control (P. carinii [1]) | number of cysts in the lungs (P. carinii [2])
CCCCCCCCOc1ccc(C(=O)NC2C[C@@H](O)[C@@H](O)NC(=O)C3[C@@H](O)[C@@H](C)CN3C(=O)C(C(C)O)NC(=O)C([C@H](O)[C@@H](O)c3ccc(O)cc3)NC(=O)C3C[C@@H](O)CN3C(=O)C(C(C)O)NC2=O)cc1 (stereo partly drawn) [Compound IBii, 1-[(4R,5R)-4,5-dihydroxy-N²-[4-(octyloxy)benzoyl]-L-ornithine]echinocandin B] ({Benzoyl(4-octyloxy)}-[ξOrn(4R-OH,5R-OH)][ξT][ξPro(4R-OH)][ξhTyr(3S-OH,4S-OH)][ξT][X3]; lactam 1-C) | approximately 84% | 
CCC(C)CC(C)CCCCCCCCC(=O)NC1CC(O)C(O)NC(=O)C2C(O)C(C)CN2C(=O)C(C(O)CC(N)=O)NC(=O)C(C(O)C(O)c2ccc(O)cc2)NC(=O)C2CC(O)CN2C(=O)C(C(C)O)NC1=O (stereo not drawn) [Compound IA] (X1-[ξOrn(4,5-diOH)]T[Hyp][ξhTyr(βξ-OH,γξ-OH)][X2][ξPro(3ξ-OH,4ξ-Me)]; lactam 1-C; configuration not given here) | > 99% | No cysts could be found
